Assay results as given in PMC8152971, “Valeriana rigida Ruiz & Pav. Root Extract: A New Source of Caffeoylquinic Acids with Antioxidant and Aldose Reductase Inhibitory Activities” (Foods, 2021).
Marks after values point to notes of the source that are not given here.

Experiments:
[1] = Partition coefficient (K upper/lower) in biphasic CCC solvent systems; type: physicochemical
Procedure: The solvent system was screened via HPLC and evaluated according to the partition coefficient (K value) of the target compounds on the principle introduced by Ito [32]. Briefly, four solvent systems comprising EtOAc, n-BuOH, […] solution to 29 mM, and then the corresponding K values of the target compounds under acidic (Kacid) or basic (Kbase) conditions were determined, as previously described: each acidified or basified solvent system was partitioned to upper layer and lower layer. Thereafter, the extract (about 1–2 mg) was prepared in a 1.5 mL tube and dissolved by adding equal volumes (each 500 µL) of the upper layer and lower layers, which were mixed by a vortex mixer and centrifuged for about 20 s using a C1301 Mini Centrifuge (Labnet International, South Korea). Next, the upper and lower phase sample solutions were respectively pipetted (each 200 µL) into a new 1.5 mL-tube and evaporated by nitrogen gas. Each sample residue was redissolved using 200 µL of MeOH and subjected to HPLC analysis with an injection volume of 20 µL. The K value was calculated as K = Aupper/Alower, where Aupper and Alower are the HPLC peak areas of the target component in the upper and lower phases, respectively.

[2] = DPPH radical scavenging assay; settings: Trolox equivalent antioxidant capacity, mean ± SD, n ≥ 3
Procedure: The experiment was carried out as previously described. […] Thereafter, the absorbance was measured using a microplate reader (EL800, Bio-Tek Instruments, Winooski, VT, USA) at 570 nm.

[3] = Hypochlorous acid (HOCl) scavenging assay; settings: for IC50: linear regression
Procedure: The HOCl scavenging assay was adapted from a previous study using 1,8-diaminonaphthalene as a fluorescence probe for hypochlorite. […] Next, the fluorescence intensity (λex = 360 ± 20 nm, λem = 460 ± 20 nm) was immediately measured using a microplate fluorescence reader (FLx800; Bio-Tek, Winooski, VT, USA). Trolox (final concentration 25–100 µg/mL) was used as a reference antioxidant.

[4] = biological target: T1, rat lens AR homogenate (aldose reductase) (Rattus norvegicus, UniProt P07943); assay: AR inhibition assay; type: biochemical, Sprague–Dawley rats; settings: for IC50: rat lens AR, read-out: AR inhibitory Activity IC50
T1 construct: the lenses were removed from the eyes, ground in a mortar; from tissue; host or cells: lens of Sprague–Dawley rats
Procedure: The eyes of 10-week Sprague–Dawley rats (250–280 g) were removed and frozen at −70 °C before use. Thereafter, the lenses were removed from the eyes, ground in a mortar (precooled at −70 °C), and extracted using 0.1 M PBS of pH 6.2 (around 0.5 mL of buffer per two frozen rat lenses).
The AR inhibitory activities of the extract and the separated compounds were determined as described previously. […] Next, the reaction was initiated by adding 20 µL of the substrate (DL-glyceraldehyde dimmer, 25 mM in 0.1 M PBS of pH 7.0), and the values were further measured for 6 min at 340 nm (OD340) using an Epoch microplate spectrophotometer (BioTek Instruments, Winooski, VT, USA). […] The DMSO used for sample preparation was less than 0.4% (v/v) in the reaction system.

[5] = Oxygen radical absorbance capacity (ORAC) assay; settings: Trolox equivalent antioxidant capacity, mean ± SD, n ≥ 3
Procedure: The oxygen radical absorbance capacity (ORAC) assay was performed as previously described. Briefly, 0. […] Next, 60 µL of AAPH (40 mM) was added to generate peroxyl radicals to initiate the reaction.

[6] = ABTS radical scavenging assay; settings: Trolox equivalent antioxidant capacity, mean ± SD, n ≥ 3
Procedure: The experiment was conducted as previously described. In brief, 3.5 mM of potassium persulfate aqueous solution was used to prepare 0.2 mM of ABTS diammonium salt. The solution was diluted 10-fold using distilled water and allowed to produce ABTS radicals (ABTS^+) by keeping the solution in the dark for 14 h at room temperature. […] Equation (1) was used to calculate the ABTS^+ scavenging activity (%), where Acontrol is the absorbance of ABTS^+ solution free of samples, Asample is the absorbance of ABTS^+ solution incubated with a sample, Ablank1 is the absorbance of the test sample free of ABTS^+ solution, and Ablank2 is the absorbance of the diluted potassium persulfate solution.

[7] = EtOAc/H2O, 1:1, 208 mM formic acid
[8] = EtOAc/n-BuOH/H2O, 2:3:5, 30 mM ammonia
[9] = EtOAc/n-BuOH/H2O, 2:3:5, 208 mM formic acid
[10] = EtOAc/n-BuOH/H2O, 3:2:5, 30 mM ammonia
[11] = EtOAc/n-BuOH/H2O, 3:2:5, 208 mM formic acid
[12] = EtOAc/n-BuOH/H2O, 4:1:5, 30 mM ammonia
[13] = EtOAc/n-BuOH/H2O, 4:1:5, 208 mM formic acid
[14] = read-out: AR inhibitory Activity Inhibition (%)

Row | K(upper/lower) Value ([1]; EtOAc/H2O, 1:1, 30 mM ammonia) | K(upper/lower) Value [1, 7] | K(upper/lower) Value [1, 8] | K(upper/lower) Value [1, 9] | K(upper/lower) Value [1, 10] | K(upper/lower) Value [1, 11] | K(upper/lower) Value [1, 12] | K(upper/lower) Value [1, 13] | inhibition at 0.781 µM [4, 14] [%] | IC50 [4] [nM] | Compound | TE, DPPH [2] | HOCl Scavenging Activity Inhibition (%) ([3]; 6.25 µM) | HOCl Scavenging Activity Inhibition (%) ([3]; 12.5 µM) | IC50 [3] [µM] | inhibition at 0.195 µM [4, 14] [%] | inhibition at 0.391 µM [4, 14] [%] | TE, ORAC [5] | TE, ABTS [6] | HOCl Scavenging Activity Inhibition (%) ([3]; 3.125 µM) | inhibition at 0.098 µM [4, 14] [%] | also measured
1 | 0.02 | 23.71 | 0.40 | 29.51 | 0.22 | 26.44 | 0.03 | 27.56 | 69.8 ± 0.77 | 400 | O=C(/C=C/c1ccc(O)c(O)c1)O[C@@H]1C[C@](O)(C(=O)O)C[C@@H](OC(=O)/C=C/c2ccc(O)c(O)c2)[C@H]1OC(=O)/C=C/c1ccc(O)c(O)c1 [3,4,5-triCQA (7), 3,4,5-tri-O-caffeoylquinic acid] | 1.28 ± 0.04 ^a µmol Trolox Equivalents Per µmol Compound | 35.39 ± 1.17 | 52.93 ± 1.02 | 11.7 | 27.6 ± 2.43 | 49.7 ± 0.94 | 1.95 ± 0.15 ^b µmol Trolox Equivalents Per µmol Compound | 1.31 ± 0.05 ^a µmol Trolox Equivalents Per µmol Compound |  |  | HOCl Scavenging Activity Inhibition (%) ([3]; 25 µM): 84.32 ± 3.39%
2 | 0.02 | 0.49 | 0.01 | 2.49 | 0.05 | 2.03 | 0.00 | 1.36 |  |  | O=C(/C=C/c1ccc(O)c(O)c1)O[C@@H]1C[C@@](O)(C(=O)O)C[C@@H](O)[C@@H]1O [3-CQA (1), 3-O-caffeoylquinic acid] |  |  |  |  |  |  |  |  |  |  | K(upper/lower) Value ([1]; n-BuOH/H2O, 1:1): 0.04; K(upper/lower) Value ([1]; n-BuOH/H2O, 1:1 + 8.7 mM acetic acid): 0.73; inhibition at 1.5625 µM ([4]; 1.5625 µM, read-out: AR inhibitory Activity Inhibition (%)): 29.4 ± 3.4%; inhibition at 3.125 µM ([4]; 3.125 µM, read-out: AR inhibitory Activity Inhibition (%)): 45.8 ± 1.75%; inhibition at 6.25 µM ([4]; 6.25 µM, read-out: AR inhibitory Activity Inhibition (%)): 60.1 ± 1.22%
3 | 0.01 | 0.95 | 0.01 | 6.86 | 0.03 | 5.48 | 0.01 | 2.43 | 44.2 ± 1.17 | 910 | O=C(/C=C/c1ccc(O)c(O)c1)O[C@@H]1C[C@](O)(C(=O)O)C[C@@H](O)[C@H]1O [5-CQA (2), 5-O-caffeoylquinic acid] |  |  |  |  |  | 30.8 ± 2.18 |  |  |  |  | inhibition at 1.563 µM ([4]; 1.563 µM, read-out: AR inhibitory Activity Inhibition (%)): 63.8 ± 2.55%

Row | Compound | K(upper/lower) Value ([1]; EtOAc/H2O, 1:1, 30 mM ammonia) | K(upper/lower) Value [1, 7] | K(upper/lower) Value [1, 8] | K(upper/lower) Value [1, 9] | K(upper/lower) Value [1, 10] | K(upper/lower) Value [1, 11] | K(upper/lower) Value [1, 12] | K(upper/lower) Value [1, 13] | inhibition at 0.781 µM [4, 14] [%] | IC50 [4] [nM] | TE, DPPH [2] | HOCl Scavenging Activity Inhibition (%) ([3]; 6.25 µM) | HOCl Scavenging Activity Inhibition (%) ([3]; 12.5 µM) | IC50 [3] [µM] | inhibition at 0.195 µM [4, 14] [%] | inhibition at 0.391 µM [4, 14] [%] | TE, ORAC [5] | TE, ABTS [6] | HOCl Scavenging Activity Inhibition (%) ([3]; 3.125 µM) | inhibition at 0.098 µM [4, 14] [%] | also measured
4 | O=C(/C=C/c1ccc(O)c(O)c1)O[C@H]1[C@H](O)C[C@](O)(C(=O)O)C[C@H]1OC(=O)/C=C/c1ccc(O)c(O)c1 [3,4-diCQA (4), 3,4-di-O-caffeoylquinic acid] | 0.02 | 3.49 | 0.04 | 20.24 | 0.03 | 16.14 | 0.02 | 4.86 |  | 220 | 1.09 ± 0.09 ^b µmol Trolox Equivalents Per µmol Compound | 50.28 ± 0.19 | 59.15 ± 1.19 | 5.78 | 50.4 ± 3.34 | 68.67 ± 0.68 | 3.26 ± 0.10 ^a µmol Trolox Equivalents Per µmol Compound | 1.06 ± 0.06 ^c µmol Trolox Equivalents Per µmol Compound | 46.68 ± 2.87 | 18.9 ± 2.43 | 
5 | O=C(/C=C/c1ccc(O)c(O)c1)O[C@@H]1C[C@](O)(C(=O)O)C[C@@H](OC(=O)/C=C/c2ccc(O)c(O)c2)[C@H]1O [3,5-diCQA (5), 3,5-di-O-caffeoylquinic acid] | 0.01 | 7.71 | 0.12 | 38.56 | 0.01 | 35.91 | 0.01 | 14.23 |  |  | 0.86 ± 0.08 ^c µmol Trolox Equivalents Per µmol Compound | 56.13 ± 3.01 | 62.86 ± 1.23 | 2.93 | 62.3 ± 1.33 | 75.6 ± 1.33 | 2.13 ± 0.07 ^b µmol Trolox Equivalents Per µmol Compound | 0.89 ± 0.05 ^d µmol Trolox Equivalents Per µmol Compound | 49.56 ± 1.23 | 35.4 ± 1.33 | 
